Data reported in PubChem BioAssay AID330 (DTP/NCI, 2004).
Values joined by “and” are separate entries in the source; they are usually repeats but may differ in a detail not shown here. Equal values may be shown once. Toxic doses and inconclusive results are not listed.

Test system: P388 leukemia ip, CD2F1 mice, survival T/C
Assay: NCI In Vivo Anticancer Drug Screen. Data for tumor model P388 Leukemia (intraperitoneal) in CD2F1 (CDF1) mice
Details: endpoint: median survival time, higher = longer survival
How it was run: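 Mice carrying the transplanted tumor received test compound or vehicle. Survival was recorded in each group, and the value is the treated-group measurement divided by that of the vehicle-treated control group.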

[1] = dose: 50.0 mg/kg/injection, schedule: Q01DX005 (ip), vehicle: saline with Tween-80
[2] = dose: 100.0 mg/kg/injection, schedule: Q01DX005 (ip), vehicle: saline with Tween-80
[3] = dose: 12.5 mg/kg/injection, schedule: Q01DX009 (ip), vehicle: saline with Tween-80
[4] = dose: 25.0 mg/kg/injection, schedule: Q01DX009 (ip), vehicle: saline with Tween-80
[5] = dose: 50.0 mg/kg/injection, schedule: Q01DX009 (ip), vehicle: saline with Tween-80
[6] = dose: 60.0 mg/kg/injection, schedule: Q01DX005 (ip), vehicle: Klucel (hydroxypropylcellulose) (HPC)
[7] = dose: 120.0 mg/kg/injection, schedule: Q01DX005 (ip), vehicle: Klucel (hydroxypropylcellulose) (HPC)
[8] = dose: 50.0 mg/kg/injection, schedule: Q01DX005 (ip), vehicle: distilled water + alcohol
[9] = dose: 100.0 mg/kg/injection, schedule: Q01DX005 (ip), vehicle: distilled water + alcohol
[10] = dose: 200.0 mg/kg/injection, schedule: Q01DX005 (ip), vehicle: distilled water + alcohol
[11] = dose: 200.0 mg/kg/injection, schedule: Q01DX005 (ip), vehicle: saline with Tween-80
[12] = dose: 100.0 mg/kg/injection, schedule: Q01DX009 (ip), vehicle: saline with Tween-80
[13] = dose: 200.0 mg/kg/injection, schedule: Q01DX009 (ip), vehicle: saline with Tween-80

With `COc1ccc(SCC(=O)c2ccc([N+](=O)[O-])o2)cc1` the T/C (dose: 50.0 mg/kg/injection, schedule: Q01DX009 (ip), vehicle: suspension in saline) was 114 % of control and the T/C (dose: 100.0 mg/kg/injection, schedule: Q01DX009 (ip), vehicle: suspension in saline) was 104 % of control.
With `COc1ccc(CNCC#N)c(OC)c1` the T/C [1] was 97 % of control and the T/C [2] was 100 % of control.
In the case of `Cc1ccccc1N1CCN(c2ccccc2C)C1=C1N(c2ccccc2C)CCN1c1ccccc1C`, the T/C (dose: 85.0 micrograms/kg/injection, schedule: Q01DX009 (ip), vehicle: DMSO) is reported as 101 % of control, the T/C (dose: 190.0 micrograms/kg/injection, schedule: Q01DX009 (ip), vehicle: DMSO) is reported as 93 % of control and the T/C (dose: 380.0 micrograms/kg/injection, schedule: Q01DX009 (ip), vehicle: DMSO) is reported as 93 % of control.
In the case of `CC12CCC3c4ccc(OC(=O)C56C=CC(=O)C5C5C=CC6CC5)cc4CCC3C1CCC2=O` (centres undefined), the T/C (dose: 25.0 mg/kg/injection, schedule: Q01DX005 (ip), vehicle: distilled water + Tween-80) is reported as 91 % of control, the T/C (dose: 50.0 mg/kg/injection, schedule: Q01DX005 (ip), vehicle: distilled water + Tween-80) is reported as 95 % of control and the T/C (dose: 100.0 mg/kg/injection, schedule: Q01DX005 (ip), vehicle: distilled water + Tween-80) is reported as 87 % of control. The T/C (dose: 200.0 mg/kg/injection, schedule: Q01DX005 (ip), vehicle: distilled water + Tween-80) was 95 % of control.
In the case of `C/C(=N\NC(=S)N1CCN(c2ccccn2)CC1)c1nccs1`, the T/C (dose: 6.25 mg/kg/injection, schedule: Q01DX005 (ip), vehicle: saline with Tween-80) is reported as 105 % of control and the T/C (dose: 12.5 mg/kg/injection, schedule: Q01DX005 (ip), vehicle: saline with Tween-80) is reported as 113 % of control.
`COc1cc(N=Nc2cccc(C(=O)O)c2)ccc1N(CCCl)CCCl` was tested, and the T/C (dose: 6.25 mg/kg/injection, schedule: Q01DX009 (ip), vehicle: saline with Tween-80) was 106 % of control, the T/C [3] was 121 % of control and the T/C [4] was 152 % of control.
`O=C(O)CCCc1cc(I)c(N(CCCl)CCCl)c(I)c1` was tested, and the T/C [3] was 121 % of control, the T/C [4] was 107 % of control and the T/C [5] was 121 % of control.
`c1ccc(-c2cc3nccnc3[nH]2)cc1` was tested, and the T/C (dose: 15.0 mg/kg/injection, schedule: Q01DX005 (ip), vehicle: Klucel (hydroxypropylcellulose) (HPC)) was 100 % of control, the T/C (dose: 30.0 mg/kg/injection, schedule: Q01DX005 (ip), vehicle: Klucel (hydroxypropylcellulose) (HPC)) was 92 % of control and the T/C [6] was 87 % of control and 89 % of control. The T/C [7] was 97 % of control.
In the case of `Nc1nc(N)c2ncn(Cc3c(Cl)cccc3Cl)c2n1`, the T/C [8] is reported as 95 % of control, the T/C [9] is reported as 97 % of control and the T/C [10] is reported as 93 % of control.
In the case of `Cc1c(C)c(C)c(S(=O)(=O)OCCCl)c(C)c1C`, the T/C [1] is reported as 98 % of control, the T/C [2] is reported as 92 % of control and the T/C [11] is reported as 95 % of control.
In the case of `CCC(CC)C1SCC(=O)N1c1nncs1` (centres undefined), the T/C [1] is reported as 99 % of control, the T/C [2] is reported as 105 % of control and the T/C [11] is reported as 102 % of control.
With `O=C(O)C1=C(C=C2CCCCC2)OCCC1` the T/C [5] was 88 % of control, the T/C [12] was 92 % of control and the T/C [13] was 95 % of control.
With `c1ccc(OCC(COc2ccccc2)(COc2ccccc2)COc2ccccc2)cc1` the T/C (dose: 7.5 mg/kg/injection, schedule: Q01DX009 (ip), vehicle: saline with Tween-80) was 107 % of control, the T/C (dose: 15.0 mg/kg/injection, schedule: Q01DX009 (ip), vehicle: saline with Tween-80) was 107 % of control and the T/C (dose: 30.0 mg/kg/injection, schedule: Q01DX009 (ip), vehicle: saline with Tween-80) was 104 % of control.
With `COc1ccc(Cc2cc(C(C)(C)C)cc(C(C)(C)C)c2OC)cc1` the T/C [8] was 99 % of control, the T/C [9] was 96 % of control and the T/C [10] was 99 % of control.
With `CCCN=c1c2c(OC)c(OC)ccc2cc2n1CCc1cc3c(cc1-2)OCO3` the T/C (dose: 0.63 mg/kg/injection, schedule: Q01DX009 (ip), vehicle: water) was 110 % of control, the T/C (dose: 1.25 mg/kg/injection, schedule: Q01DX009 (ip), vehicle: water) was 99 % of control and the T/C (dose: 2.5 mg/kg/injection, schedule: Q01DX009 (ip), vehicle: water) was 110 % of control. The T/C (dose: 5.0 mg/kg/injection, schedule: Q01DX009 (ip), vehicle: water) was 110 % of control and the T/C (dose: 10.0 mg/kg/injection, schedule: Q01DX009 (ip), vehicle: water) was 115 % of control.
With `C/C1=C/C2OC(=O)C3(C)C2C(CC2(C)OC1=CC2=O)OC3(O)C(C)C` (centres undefined) the T/C (dose: 10.0 mg/kg/injection, schedule: Q01DX005 (ip), vehicle: saline + alcohol) was 100 % of control, the T/C (dose: 20.0 mg/kg/injection, schedule: Q01DX005 (ip), vehicle: saline + alcohol) was 102 % of control and the T/C (dose: 40.0 mg/kg/injection, schedule: Q01DX005 (ip), vehicle: saline + alcohol) was 99 % of control. The T/C (dose: 80.0 mg/kg/injection, schedule: Q01DX005 (ip), vehicle: saline + alcohol) was 109 % of control.
With `c1cc2cc3c(cc2[nH]1)OCO3` the T/C (dose: 50.0 mg/kg/injection, schedule: Q01DX005 (ip), vehicle: Klucel + Tween-80) was 95 % of control, the T/C (dose: 100.0 mg/kg/injection, schedule: Q01DX005 (ip), vehicle: Klucel + Tween-80) was 90 % of control and the T/C (dose: 200.0 mg/kg/injection, schedule: Q01DX005 (ip), vehicle: Klucel + Tween-80) was 95 % of control.
With `CC(C)=C1NC(=O)NC1=O` the T/C (dose: 50.0 mg/kg/injection, schedule: Q01DX005 (ip), vehicle: Klucel (hydroxypropylcellulose) (HPC)) was 101 % of control, the T/C (dose: 100.0 mg/kg/injection, schedule: Q01DX005 (ip), vehicle: Klucel (hydroxypropylcellulose) (HPC)) was 101 % of control and the T/C (dose: 200.0 mg/kg/injection, schedule: Q01DX005 (ip), vehicle: Klucel (hydroxypropylcellulose) (HPC)) was 102 % of control.
In the case of `CC1(C)OC2OC3C(CN)OC(c4ccccc4)OC3C2O1` (centres undefined), the T/C [1] is reported as 105 % of control, the T/C [2] is reported as 103 % of control and the T/C [11] is reported as 86 % of control.
With `Oc1c(Cl)cc(Cl)cc1C=Nc1ccc2c(ccc3c4ccccc4ccc23)c1` the T/C (dose: 25.0 mg/kg/injection, schedule: Q04DX003 (ip), vehicle: Klucel (hydroxypropylcellulose) (HPC)) was 105 % of control, the T/C (dose: 50.0 mg/kg/injection, schedule: Q04DX003 (ip), vehicle: Klucel (hydroxypropylcellulose) (HPC)) was 105 % of control and the T/C (dose: 100.0 mg/kg/injection, schedule: Q04DX003 (ip), vehicle: Klucel (hydroxypropylcellulose) (HPC)) was 109 % of control and 86 % of control.
In the case of `COc1cc(/C=C2\N=C(c3cc(OC)c(OC)c(OC)c3)OC2=O)ccc1O`, the T/C [5] is reported as 91 % of control, the T/C [12] is reported as 95 % of control and the T/C [13] is reported as 105 % of control.
With `CCC1(c2ccc(-c3ccccc3)cc2)OC(OC(=O)NC)C=CC1=O` (centres undefined) the T/C (dose: 6.25 mg/kg/injection, schedule: Q01DX009 (ip), vehicle: Klucel (hydroxypropylcellulose) (HPC)) was 98 % of control.
For `CC1(C)OC(=O)N=C1c1ccc(Br)cc1`, the T/C [6] was 100 % of control and the T/C [7] was 104 % of control.
`CCCCN=C(N=C(NC(=O)c1ccccc1)c1ccccc1)c1ccccc1` was tested, and the T/C [5] was 90 % of control, the T/C [12] was 89 % of control and the T/C [13] was 93 % of control.
For `COc1ccc2c(ccc3c(N)ncnc32)c1`, the T/C (dose: 100.0 mg/kg/injection, schedule: Q04DX002 (ip), vehicle: saline with Tween-80) was 92 % of control and the T/C (dose: 200.0 mg/kg/injection, schedule: Q04DX002 (ip), vehicle: saline with Tween-80) was 103 % of control.
`C1=C(c2ccccc2)CS1` was tested, and the T/C (dose: 100.0 mg/kg/injection, schedule: Q01DX001 (ip), vehicle: saline with Tween-80) was 102 % of control.
With `COc1nc2[nH]c(C)cc(=O)c2c2ccccc12` the T/C (dose: 60.0 mg/kg/injection, schedule: Q01DX005 (ip), vehicle: saline with Tween-80) was 98 % of control and the T/C (dose: 120.0 mg/kg/injection, schedule: Q01DX005 (ip), vehicle: saline with Tween-80) was 98 % of control.
For `CC1(C)N=C(N)N=C(N)N1c1cccc(OCCCOc2ccccc2)c1`, the T/C (dose: 12.5 mg/kg/injection, schedule: Q01DX001 (ip), vehicle: Klucel (hydroxypropylcellulose) (HPC)) was 101 % of control, the T/C (dose: 25.0 mg/kg/injection, schedule: Q01DX001 (ip), vehicle: Klucel (hydroxypropylcellulose) (HPC)) was 100 % of control and the T/C (dose: 50.0 mg/kg/injection, schedule: Q01DX001 (ip), vehicle: Klucel (hydroxypropylcellulose) (HPC)) was 102 % of control.
With `CC(C)NC(=O)OCc1cc(-c2ccccc2)n(C)c1-c1ccccc1` the T/C (dose: 6.25 mg/kg/injection, schedule: Q01DX009 (ip), vehicle: distilled water + Tween-80) was 104 % of control and 98 % of control, the T/C (dose: 12.5 mg/kg/injection, schedule: Q01DX009 (ip), vehicle: distilled water + Tween-80) was 107 % of control and 110 % of control and 113 % of control and the T/C (dose: 25.0 mg/kg/injection, schedule: Q01DX009 (ip), vehicle: distilled water + Tween-80) was 117 % of control and 120 % of control and 122 % of control. For the same molecule, the T/C (dose: 50.0 mg/kg/injection, schedule: Q01DX009 (ip), vehicle: distilled water + Tween-80) was 105 % of control and 114 % of control and 116 % of control and the T/C (dose: 100.0 mg/kg/injection, schedule: Q01DX009 (ip), vehicle: distilled water + Tween-80) was 92 % of control.
